Test [1] deals with T1, FicD^WT (Homo sapiens, UniProt Q9BVA6).
T1 construct: soluble ER luminal domain (residues 105 to 458) of wild-type human FicD; 6xHis-Sumo (N, cleaved yes); made in house; host or cells: Rosetta(DE3) E. coli
T1 sequence (Q9BVA6 105-458): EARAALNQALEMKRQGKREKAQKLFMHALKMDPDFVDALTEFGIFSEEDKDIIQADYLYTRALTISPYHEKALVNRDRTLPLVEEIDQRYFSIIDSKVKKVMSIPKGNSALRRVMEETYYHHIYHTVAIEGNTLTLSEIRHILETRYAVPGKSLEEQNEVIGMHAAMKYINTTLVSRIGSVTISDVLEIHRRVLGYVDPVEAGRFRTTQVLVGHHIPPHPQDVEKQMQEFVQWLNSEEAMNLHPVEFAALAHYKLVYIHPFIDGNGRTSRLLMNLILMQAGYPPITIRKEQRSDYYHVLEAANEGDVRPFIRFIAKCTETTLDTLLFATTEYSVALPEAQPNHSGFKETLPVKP
On the set-up: method as in PMID 25435325. The note with it: cited from earlier work.

Test [2] concerns the target T2, FicD^R371S (Homo sapiens, UniProt Q9BVA6, R371S).
T2 construct: Wild-type FicD (residues 105-458) and all mutants were expressed as N-terminal 6xHis-Sumo fusions; 6xHis-Sumo (N, cleaved yes); made in house; host or cells: Rosetta(DE3) E. coli
T2 sequence (Q9BVA6 105-458 R371S): T1 sequence (Q9BVA6 105-458) with R267S
The test is described as follows: AMPylation of Δ26hBiP^T229A by pathogenic variant FicD^R371S. The format is biochemical. The note with it: indicated concentrations of FPP. From the text:
(§1) Fig. 5. Crystal structure of FPP inhibitor bound to FicD active site. […] FPP (cyan stick) and Mg^2+ (cyan sphere) in the pocket of FicD shown as APBS electrostatic surface with positive areas in blue, negative in red, and neutral in white (contour level: ±5 kBT/e) (Right). […] (C–E) AMPylation assays of Δ26hBiP^T229A in the presence of the indicated concentration of FPP using the pathogenic human variants (C) FicD^R371S, (D) FicD^R374H and (E) FicD^R374C. AMPylated BiP and Fic were quantified by immunodetection, and total BiP was quantified by CBB. […]
(§2) Isothermal Titration Calorimetry
(§3) Proteins were dialyzed against 25mM HEPES pH 7.4/100mM KCl/10% glycerol prior to titration. […]
(§4) MgCl2 was added to […]
(§5) proteins to a final concentration of 4mM. ITC experiments were performed in a Micro-Cal PEAQ-ITC (Malvern Panalytical, Worcestershire, UK) calorimeter with a stirred 206.2 μL reaction cell held at 20 °C. 250μM FPP was titrated into 25uM Δ104hFicL258D with 750rpm stirring. The first injection was 0.5 μL, followed by twenty 1.9 μL injections. […]
(§6) Thermogram and binding figures were plotted in
(§7) For AMPylation assays with FicD and BiP, Δ104FicDWT and Δ26hBiPT229A were combined at a ratio of 1:80 in buffer containing 25mM HEPES pH 7.4, 100mM KCl, 5mM MgCl2, 500μM ATP, 1mM DTT, and small molecule where indicated. Assays with Δ104FicDWT were incubated for 1 hour. […]

Test [3] addresses T3, FicD^R374C (Homo sapiens, UniProt Q9BVA6, R374C).
T3 construct: Wild-type FicD (residues 105-458) and all mutants were expressed as N-terminal 6xHis-Sumo fusions; 6xHis-Sumo (N, cleaved yes); made in house; host or cells: Rosetta(DE3) E. coli
T3 sequence (Q9BVA6 105-458 R374C): T1 sequence (Q9BVA6 105-458) with R270C
In words: AMPylation of Δ26hBiP^T229A by pathogenic variant FicD^R374C. The format is biochemical. The note with it: indicated concentrations of FPP.
From the text: as §1, §2, §3, §4, §5, §6, §7

Changes are numbered by the printed parent chain. Entries after “also recorded” stand apart in the source; their conditions may differ.

A word on the Kd: it is the free concentration of one partner at which half of the binding sites on the other are occupied at equilibrium, for simple one-to-one binding.

On to `Nc1ncnc2c1ncn2[C@@H]1O[C@H](COP(=O)(O)OP(=O)(O)O)[C@@H](O)[C@H]1O` [ADP], for which, in test [1], the Kd is 1500 nM.

In the case of `CC(C)=CCC/C(C)=C/CC/C(C)=C/COP(=O)(O)OP(=O)(O)O` [FPP, farnesyl-pyrophosphate], in test [2], the “FPP inhibition of FicD^R371S AMPylation activity” value was “total loss of FPP inhibition”. The “FPP inhibition of FicD^R374C mediated AMPylation” value in test [3] is given as “inhibition; also recorded: inhibited”.

Values taken from publication PMC12974487, “Inhibition of FicD-mediated AMPylation and deAMPylation by isoprenoid diphosphates” (Proceedings of the National Academy of Sciences of the …, 2026).
